Where a SMILES comes first, the peptide text is derived from it. Bridges are numbered along the chain shown (N, C = ends). [ ]: non-standard residue; d: D form. The star is where a group is joined. ξ: configuration not given here. Bip = N[C@@H](Cc1ccc(-c2ccccc2)cc1)C(=O)O; Phe(3-Me) = Cc1cccc(C[C@H](N)C(=O)O)c1; Cha = N[C@@H](CC1CCCCC1)C(=O)O; Cit = NC(=O)NCCC[C@H](N)C(=O)O; Thr(3ξ) = CC(O)[C@H](N)C(=O)O; Carboxymethyl = O=C(O)C*; NMeA = CN[C@@H](C)C(=O)O; Aun = NCCCCCCCCCCC(=O)O; Dab = NCC[C@H](N)C(=O)O; AEEA = NCCOCCOCC(=O)O; Sar = CNCC(=O)O
The molecules below were run against T1, PD-1/PD-L1 interaction (PE-labeled human PD-L1-Ig binding to Jurkat cell line over-expressing human PD-1) (Homo sapiens, UniProt Q15116) (assay: Jurkat-PD-1 Cell Binding High-Content Screening Assay (CBA)). Conditions: Jurkat-hPD-1 cells, PE-labeled PD-L1-Ig 20 nM final; read-out: Jurkat HPD1 PDL1 IC50.
T1 construct: expressed in transfected cells; host or cells: Jurkat
How it was run: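 Jurkat-hPD-1 cells (8×10^3/well) in DMEM with 10% fetal calf serum were preincubated with compound for 2 h at 37 °C. PE-labeled PD-L1-Ig was then added at 20 nM final for 1 h. Cells were fixed in paraformaldehyde with Hoechst 33342, washed and imaged by high-content imaging.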

T1 sequence (Q15116 25-288): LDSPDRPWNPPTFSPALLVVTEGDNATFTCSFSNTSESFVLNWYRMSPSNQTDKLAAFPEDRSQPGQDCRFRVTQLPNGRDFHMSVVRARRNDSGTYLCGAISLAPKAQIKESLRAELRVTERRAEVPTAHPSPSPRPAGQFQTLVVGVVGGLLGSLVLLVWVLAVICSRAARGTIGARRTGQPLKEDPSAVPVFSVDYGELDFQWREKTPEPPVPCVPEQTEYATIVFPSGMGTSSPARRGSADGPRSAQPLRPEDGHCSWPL

Structure (SMILES)	IC50 [nM]
Cc1cccc(C[C@@H]2NC(=O)[C@H](CC(=O)O)NC(=O)[C@H](Cc3cnc[nH]3)NC(=O)[C@H](Cc3ccc(OCC(=O)O)cc3)NC(=O)CSC[C@@H](C(=O)NCCCCCCCCCCC(=O)O)NC(=O)[C@H](CCC(=O)O)NC(=O)[C@H](C(C)C)NC(=O)[C@H](CC3CCCCC3)NC(=O)[C@H](CCN)NC(=O)[C@@H](CC(C)C)NC(=O)[C@H](C)N(C)C(=O)[C@H](Cc3ccc(O)cc3)NC(=O)[C@H](Cc3ccc(-c4ccccc4)cc3)NC(=O)[C@H](CCC(N)=O)NC2=O)c1 [Example 2258] ({CH2CO}-Y(Carboxymethyl)HD[Phe(3-Me)]Q[Bip]Y[NMeA][dL][Dab][Cha]VEC[Aun]-OH; thioether N-14)	765
Cc1cccc(C[C@@H]2NC(=O)[C@H](CC(=O)O)NC(=O)[C@H](Cc3ccc(OCC(=O)O)cc3)NC(=O)[C@H](C(C)O)NC(=O)CSC[C@@H](C(=O)N(C)CC(=O)NCCCCCCCCCCC(=O)O)NC(=O)[C@H](CCCNC(N)=O)NC(=O)[C@H](C(C)C)NC(=O)[C@H](CC3CCCCC3)NC(=O)[C@H](CCN)NC(=O)[C@@H](CC(C)C)NC(=O)[C@H](C)N(C)C(=O)[C@H](C(C)C)NC(=O)[C@H](Cc3ccc(-c4ccccc4)cc3)NC(=O)[C@H](C(C)C)NC2=O)c1 (stereo partly drawn) [Example 2259] ({CH2CO}-[Thr(3ξ)]Y(Carboxymethyl)D[Phe(3-Me)]V[Bip]V[NMeA][dL][Dab][Cha]V[Cit]C[Sar][Aun]-OH; thioether N-14)	11.4
Cc1cccc(C[C@@H]2NC(=O)[C@H](CC(=O)O)NC(=O)[C@H](Cc3ccc(OCC(=O)O)cc3)NC(=O)[C@H](CCCNC(=N)N)NC(=O)CSC[C@@H](C(=O)N(C)CC(=O)NCCCCCCCCCCC(=O)O)NC(=O)[C@H](CCCNC(N)=O)NC(=O)[C@H](C(C)C)NC(=O)[C@H](CC3CCCCC3)NC(=O)[C@H](CCN)NC(=O)[C@@H](CC(C)C)NC(=O)[C@H](C)N(C)C(=O)[C@H](C(C)C)NC(=O)[C@H](Cc3ccc(-c4ccccc4)cc3)NC(=O)[C@H](C(C)C)NC2=O)c1 [Example 2260] ({CH2CO}-RY(Carboxymethyl)D[Phe(3-Me)]V[Bip]V[NMeA][dL][Dab][Cha]V[Cit]C[Sar][Aun]-OH; thioether N-14)	28.5
Cc1cccc(C[C@@H]2NC(=O)[C@H](CC(=O)O)NC(=O)[C@H](Cc3ccc(OCC(=O)O)cc3)NC(=O)[C@H](CC(N)=O)NC(=O)CSC[C@@H](C(=O)N(C)CC(=O)NCCCCCCCCCCC(=O)O)NC(=O)[C@H](CCCNC(N)=O)NC(=O)[C@H](C(C)C)NC(=O)[C@H](CC3CCCCC3)NC(=O)[C@H](CCN)NC(=O)[C@@H](CC(C)C)NC(=O)[C@H](C)N(C)C(=O)[C@H](C(C)C)NC(=O)[C@H](Cc3ccc(-c4ccccc4)cc3)NC(=O)[C@H](C(C)C)NC2=O)c1 [Example 2261] ({CH2CO}-NY(Carboxymethyl)D[Phe(3-Me)]V[Bip]V[NMeA][dL][Dab][Cha]V[Cit]C[Sar][Aun]-OH; thioether N-14)	25.8
Cc1cccc(C[C@@H]2NC(=O)[C@H](CC(=O)O)NC(=O)[C@H](Cc3ccc(OCC(=O)O)cc3)NC(=O)[C@H](C(C)O)NC(=O)CSC[C@@H](C(=O)N(C)CC(=O)NCCCCCCCCCCC(=O)O)NC(=O)[C@H](C(C)O)NC(=O)[C@H](C(C)C)NC(=O)[C@H](CC3CCCCC3)NC(=O)[C@H](CCN)NC(=O)[C@@H](CC(C)C)NC(=O)[C@H](C)N(C)C(=O)[C@H](C(C)C)NC(=O)[C@H](Cc3ccc(-c4ccccc4)cc3)NC(=O)[C@H](Cc3ccc(O)cc3)NC2=O)c1 (stereo partly drawn) [Example 2262] ({CH2CO}-[Thr(3ξ)]Y(Carboxymethyl)D[Phe(3-Me)]Y[Bip]V[NMeA][dL][Dab][Cha]V[Thr(3ξ)]C[Sar][Aun]-OH; thioether N-14)	154
Cc1cccc(C[C@@H]2NC(=O)[C@H](CC(=O)O)NC(=O)[C@H](Cc3ccc(OCC(=O)O)cc3)NC(=O)[C@H](C(C)O)NC(=O)CSC[C@@H](C(=O)N(C)CC(=O)NCCCCCCCCCCC(=O)O)NC(=O)[C@H](CCC(=O)O)NC(=O)[C@H](C(C)C)NC(=O)[C@H](CC3CCCCC3)NC(=O)[C@H](CCN)NC(=O)[C@@H](CC(C)C)NC(=O)[C@H](C)N(C)C(=O)[C@H](C(C)C)NC(=O)[C@H](Cc3ccc(-c4ccccc4)cc3)NC(=O)[C@H](Cc3ccc(O)cc3)NC2=O)c1 (stereo partly drawn) [Example 2263] ({CH2CO}-[Thr(3ξ)]Y(Carboxymethyl)D[Phe(3-Me)]Y[Bip]V[NMeA][dL][Dab][Cha]VEC[Sar][Aun]-OH; thioether N-14)	334
Cc1cccc(C[C@@H]2NC(=O)[C@H](CC(=O)O)NC(=O)[C@H](Cc3ccc(OCC(=O)O)cc3)NC(=O)[C@H](C(C)O)NC(=O)CSC[C@@H](C(=O)N(C)CC(=O)NCCCCCCCCCCC(=O)O)NC(=O)[C@H](CCC(N)=O)NC(=O)[C@H](C(C)C)NC(=O)[C@H](CC3CCCCC3)NC(=O)[C@H](CCN)NC(=O)[C@@H](CC(C)C)NC(=O)[C@H](C)N(C)C(=O)[C@H](C(C)C)NC(=O)[C@H](Cc3ccc(-c4ccccc4)cc3)NC(=O)[C@H](Cc3ccc(O)cc3)NC2=O)c1 (stereo partly drawn) [Example 2265] ({CH2CO}-[Thr(3ξ)]Y(Carboxymethyl)D[Phe(3-Me)]Y[Bip]V[NMeA][dL][Dab][Cha]VQC[Sar][Aun]-OH; thioether N-14)	427
Cc1cccc(C[C@@H]2NC(=O)[C@H](CC(=O)O)NC(=O)[C@H](Cc3ccc(OCC(=O)O)cc3)NC(=O)[C@H](CC(N)=O)NC(=O)CSC[C@@H](C(=O)N(C)CC(=O)NCCCCCCCCCCC(=O)O)NC(=O)[C@H](CCC(=O)O)NC(=O)[C@H](C(C)C)NC(=O)[C@H](CC3CCCCC3)NC(=O)[C@H](CCN)NC(=O)[C@@H](CC(C)C)NC(=O)[C@H](C)N(C)C(=O)[C@H](C(C)C)NC(=O)[C@H](Cc3ccc(-c4ccccc4)cc3)NC(=O)[C@H](Cc3ccc(O)cc3)NC2=O)c1 [Example 2266] ({CH2CO}-NY(Carboxymethyl)D[Phe(3-Me)]Y[Bip]V[NMeA][dL][Dab][Cha]VEC[Sar][Aun]-OH; thioether N-14)	334
Cc1cccc(C[C@@H]2NC(=O)[C@H](CC(=O)O)NC(=O)[C@H](Cc3ccc(OCC(=O)O)cc3)NC(=O)[C@H](CCCNC(=N)N)NC(=O)CSC[C@@H](C(=O)N[C@@H](CCN)C(=O)NCCCCCCCCCCC(=O)O)NC(=O)[C@H](CCC(N)=O)NC(=O)[C@H](C(C)C)NC(=O)[C@H](CC3CCCCC3)NC(=O)[C@H](CCN)NC(=O)[C@@H](CC(C)C)NC(=O)[C@H](C)N(C)C(=O)[C@H](Cc3ccc(O)cc3)NC(=O)[C@H](Cc3ccc(-c4ccccc4)cc3)NC(=O)[C@H](C(C)C)NC2=O)c1 [Example 2269] ({CH2CO}-RY(Carboxymethyl)D[Phe(3-Me)]V[Bip]Y[NMeA][dL][Dab][Cha]VQC[Dab][Aun]-OH; thioether N-14)	11.9
Cc1cccc(C[C@@H]2NC(=O)[C@H](CC(=O)O)NC(=O)[C@H](Cc3ccc(OCC(=O)O)cc3)NC(=O)[C@H](C(C)O)NC(=O)CSC[C@@H](C(=O)N(C)CC(=O)NCCOCCOCC(=O)NCCCCCCCCCCC(=O)O)NC(=O)[C@H](CCC(=O)O)NC(=O)[C@H](C(C)C)NC(=O)[C@H](CC3CCCCC3)NC(=O)[C@H](CCN)NC(=O)[C@@H](CC(C)C)NC(=O)[C@H](C)N(C)C(=O)[C@H](Cc3ccc(O)cc3)NC(=O)[C@H](Cc3ccc(-c4ccccc4)cc3)NC(=O)[C@H](C(C)C)NC2=O)c1 (stereo partly drawn) [Example 2270] ({CH2CO}-[Thr(3ξ)]Y(Carboxymethyl)D[Phe(3-Me)]V[Bip]Y[NMeA][dL][Dab][Cha]VEC[Sar][AEEA][Aun]-OH; thioether N-14)	802
